Experiments:
[1] = target: T1, recombinant human sEH (hsEH) (Homo sapiens, UniProt P34913); assay: In vitro determination of sEH inhibitory activity (fluorescent PHOME assay)
T1 sequence (P34913 1-555): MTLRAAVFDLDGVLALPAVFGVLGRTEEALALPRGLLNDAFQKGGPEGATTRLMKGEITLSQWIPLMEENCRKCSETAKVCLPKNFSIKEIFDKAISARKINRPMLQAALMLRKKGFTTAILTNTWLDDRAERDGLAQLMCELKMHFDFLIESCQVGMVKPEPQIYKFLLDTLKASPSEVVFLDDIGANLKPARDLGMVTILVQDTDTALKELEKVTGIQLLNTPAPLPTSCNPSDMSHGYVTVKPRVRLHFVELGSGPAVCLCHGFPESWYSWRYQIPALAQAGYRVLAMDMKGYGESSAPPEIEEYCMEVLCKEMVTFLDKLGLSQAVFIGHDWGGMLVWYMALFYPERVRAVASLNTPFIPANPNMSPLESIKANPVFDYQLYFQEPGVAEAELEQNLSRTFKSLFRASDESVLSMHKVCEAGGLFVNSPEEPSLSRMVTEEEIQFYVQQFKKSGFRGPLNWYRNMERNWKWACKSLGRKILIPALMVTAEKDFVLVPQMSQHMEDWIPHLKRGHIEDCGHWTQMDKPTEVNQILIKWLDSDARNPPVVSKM
Procedure: Control compound (TPPU): N-[1-(1-Oxopropyl)-4-piperidinyl]-N′-[4-(trifluoromethoxy)phenyl]urea.
Five μL of DMSO were added to background and positive control wells, and then 5 μL of inhibitor solution were added in the inhibitor wells. Five μL of the solution of hsEH were added to the positive control and inhibitor wells and the mixture was stirred. A 1/21 dilution of the solution of PHOME with assay buffer was prepared according to the final volume required, and then 105 μL of each well were added. The plate was carefully shaken for 10 seconds and was incubated for 5 minutes at room temperature. […] The intensity of fluorescence was used to analyze and calculate the IC50 values. Results were obtained by regression analysis from at least three data points in a linear region of the curve. IC50 values are average of minimum three independent replicates.

[2] = target: T2, human recombinant glutaminyl cyclase (hQC) (Homo sapiens, UniProt Q16769); assay: In vitro determination of human QC inhibitory activity (SensoLyte Green Glutaminyl Cyclase Activity Assay Kit); type: biochemical
T2 construct: purchased Eurogentec AS-72230
Procedure: Basic statistical analysis was performed.

[3] = Parallel artificial membrane permeation assay for blood-brain barrier (PAMPA-BBB); type: in vitro ADME, porcine; conditions: for Papp: pig, PBS:EtOH (70:30), read-out: Blood-brain barrier permeability Pe; for CNS prediction: predictive penetration in the CNS from Pe
Procedure: A parallel artificial membrane permeation assay for blood-brain barrier (PAMPA-BBB) was used to evaluate the brain penetration of compounds of formula I, following the method described by L. Di et al., “High throughput artificial membrane permeability assay for blood-brain barrier”, European Journal of Medicinal Chemistry 2003, vol. 38. pp. 223-232. The in vitro permeability (Pe) of the test compounds through a lipid extract of porcine brain membrane was determined. Assayed compounds were tested using a mixture of PBS:EtOH (70:30). Assay validation was made by comparing the experimental and reported permeability values of a set of fourteen commercial drugs and a lineal correlation between experimental and reported permeability values of the fourteen commercial drugs was obtained (y=1.678 x−1.447; R^2=0.9313). From this equation and taking into account the limits established by Di et al. for BBB permeation, the ranges of permeability were established, as follows. Compounds of high BBB permeation (CNS+): Pe (10^−6 cm s^−1)>5.26; compounds of low BBB permeation (CNS−): Pe (10^−6 cm s^−1)<1.91; and compounds of uncertain BBB permeation (CNS+/−): 5.26>Pe (10^−6 cm s^−1)>1.91. The permeability results are averages of three different experiments in triplicate and a predictive penetration in the CNS is also given (Table 5).

LPS stimulated BV2 cells = assay: Cytokine release in LPS stimulated BV2 cells; type: cell-based, murine; conditions: compound 10 μM, 24 h
Procedure: Compounds of formula I were diluted from 250 mM DMSO stock solutions to a 10 mM stock in DMSO. Thereafter, the compounds were diluted to 10 μM and 1 μM in medium, so that the final DMSO concentration in the well was 0.1% for all conditions. The stock solutions were stored at −20° C. until further use.
Culture and treatment of BV-2 cells: The murine microglial cell line BV-2 was cultivated in Dulbecco's modified eagle medium (DMEM) supplemented with 10% fetal calf serum (FCS), 1% penicillin/streptomycin and 2 mM L-glutamine (culture medium). For the lipopolysaccharide (LPS) stimulation assay, 20,000 BV-2 cells per well (uncoated 96 well plates) were plated out. After 48 h, the medium was changed to treatment medium (DMEM, 5% FCS, 2 mM L-glutamine) and cells were maintained in treatment medium for the remaining culture period. After changing cells to treatment medium, the compounds were administered 1 h before LPS stimulation (Sigma-Aldrich; L6529; 1 mg/mL stock in ddH2O, final concentration in well: 100 ng/mL (dilutions in medium)). Cells treated with vehicle and LPS alone served as controls. All wells were handled the same way. After 24 h of stimulation, cell supernatants were collected for the cytokine measurement. The experiment was performed in n=6 technical replicates for all groups.
Cytokine measurement: The samples were diluted 1:2 and analysed for 4 cytokines (IL-1β, IL-2, IL-6, TNF-α) with a commercially available immunosorbent assay kit (U-plex, K15069L, Mesoscale Discovery) according to the instructions of the manufacturer. In brief, 25 μL of diluent 41 and 25 μL sample or respective standard were placed into wells of the pre-coated U-plex plate and incubated on an orbital shaker at room temperature for 1 h. Plates were washed 3 times with phosphate buffered saline with 0.05% Tween 20 (PBST) and thereafter 50 μL of detection antibody were added. Plates were again incubated on an orbital shaker at room temperature for 1 h. After another 3 washing steps with PBST, 150 μL of Mesoscale Discovery (MSD) GOLD Read Buffer were added and plates were read on Sector imager. Data were evaluated in comparison to calibration curves provided in the kit.
Statistics: Basic statistical analysis was performed. Group differences were evaluated by e.g. one-way ANOVA followed by a posthoc test, if appropriate.

T2 sequence (Q16769 29-361): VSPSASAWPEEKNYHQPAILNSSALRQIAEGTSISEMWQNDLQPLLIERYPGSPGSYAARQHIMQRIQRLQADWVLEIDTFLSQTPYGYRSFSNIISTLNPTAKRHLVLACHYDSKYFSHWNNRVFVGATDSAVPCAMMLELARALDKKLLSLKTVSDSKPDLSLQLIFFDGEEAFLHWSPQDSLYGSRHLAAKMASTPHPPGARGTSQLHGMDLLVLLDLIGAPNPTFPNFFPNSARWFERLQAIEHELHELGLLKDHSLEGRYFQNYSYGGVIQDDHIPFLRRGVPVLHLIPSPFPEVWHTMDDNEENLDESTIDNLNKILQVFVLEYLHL

SMILES | IC50 [1] | IC50 [2] | Papp [3] | CNS prediction [3] | IL-1β level (LPS stimulated BV2 cells) | IL-2 level (LPS stimulated BV2 cells) | IL-6 level (LPS stimulated BV2 cells) | TNF-α level (LPS stimulated BV2 cells)
Cc1cncn1CCCNC(=O)NC12CC3CC(CC1C3)C2 [It, 1-(noradamantan-3-yl)-3-[3-(5-methyl-1H-imidazol-1-yl)propyl]urea] | 0.185 µM | 0.46 µM | 5.8 ×10⁻⁶ cm/s | CNS+ (Compounds of high BBB permeation (CNS+): Pe (10^−6 cm s^−1)>5.26) | – | – | – | –
Cc1cncn1CCCNC(=O)NC12CC3CC(C)(CC(C)(C3)C1)C2 [Ie, 1-(3,5-dimethyladamantan-1-yl)-3-[3-(5-methyl-1H-imidazol-1-yl)propyl]urea] | 0.029 µM | 2.1 µM | 8.8 ×10⁻⁶ cm/s | CNS+ (Compounds of high BBB permeation (CNS+): Pe (10^−6 cm s^−1)>5.26) | – | – | – | –
CCC(=O)N1CCC(NC(=O)Nc2ccc(OC(F)(F)F)cc2)CC1 [TPPU, N-[1-(1-Oxopropyl)-4-piperidinyl]-N′-[4-(trifluoromethoxy)phenyl]urea, reference compound] | – | – | – | – | 125 % of vehicle control | 113 % of vehicle control | 117 % of vehicle control | 96 % of vehicle control
Cc1cncn1CCCNC(=O)N[C@H]1C2CC3CC1C[C@](Cl)(C3)C2 [Iab, trans-1-(5-chloroadamantan-2-yl)-3-[3-(5-methyl-1H-imidazol-1-yl)propyl]urea] | 0.039 µM | 0.559 µM | 13.1 ×10⁻⁶ cm/s | CNS+ (Compounds of high BBB permeation (CNS+): Pe (10^−6 cm s^−1)>5.26) | – | – | – | –
Cc1cncn1CCCNC(=O)NC1C2CC3CC(C2)CC1(Cl)C3 (racemic) [Iz, (±)-1-(1-chloroadamantan-2-yl)-3-[3-(5-methyl-1H-imidazol-1-yl)propyl]urea] | 0.03 µM | 0.496 µM | 6 ×10⁻⁶ cm/s | CNS+ (Compounds of high BBB permeation (CNS+): Pe (10^−6 cm s^−1)>5.26) | – | – | – | –
Cc1cncn1CCCNC(=O)NCCC12CC3CC(CC(C3)C1)C2 [Io, 1-[2-(adamantan-1-yl)ethyl]-3-[3-(5-methyl-1H-imidazol-1-yl)propyl]urea] | 0.0013 µM | 1.65 µM | 18.7 ×10⁻⁶ cm/s | CNS+ (Compounds of high BBB permeation (CNS+): Pe (10^−6 cm s^−1)>5.26) | – | – | – | –
C[C@@H]1C[C@H]2[C@@H]3CCC4=CC(=O)C=C[C@]4(C)[C@@]3(F)[C@@H](O)C[C@]2(C)[C@@]1(O)C(=O)CO [dexamethasone, reference compound] | – | – | – | – | 42 % of vehicle control | 50 % of vehicle control | 55 % of vehicle control | 49 % of vehicle control
Cc1cncn1CCCNC(=O)NC12CC3CC(CC(F)(C3)C1)C2 [Ig, 1-(3-fluoroadamantan-1-yl)-3-[3-(5-methyl-1H-imidazol-1-yl)propyl]urea] | 0.15 µM | 0.81 µM | – | – | – | – | – | –
Cc1cncn1CCCNC(=O)NC(C)C12CC3CC(CC(C3)C1)C2 (stereo not shown) [Ix, 1-[1-(adamantan-1-yl)ethyl]-3-[3-(5-methyl-1H-imidazol-1-yl)propyl]urea] | 0.059 µM | – | 6.5 ×10⁻⁶ cm/s | CNS+ (Compounds of high BBB permeation (CNS+): Pe (10^−6 cm s^−1)>5.26) | – | – | – | –

Second part, led by results:

IC50 [1] | IC50 [2] | Papp [3] | SMILES | CNS prediction [3] | IL-1β level (LPS stimulated BV2 cells) | IL-2 level (LPS stimulated BV2 cells) | IL-6 level (LPS stimulated BV2 cells) | TNF-α level (LPS stimulated BV2 cells)
0.023 µM | 0.205 µM | 9.8 ×10⁻⁶ cm/s | Cc1cncn1CCCNC(=O)N(C)C1C2CC3CC(C2)CC1C3 (stereo not shown) [Iy, 1-(adamantan-2-yl)-1-methyl-3-[3-(5-methyl-1H-imidazol-1-yl)propyl]urea] | CNS+ (Compounds of high BBB permeation (CNS+): Pe (10^−6 cm s^−1)>5.26) | – | – | – | –
5.9 µM | 0.767 µM | 7.4 ×10⁻⁶ cm/s | Cc1cncn1CCCNC(=O)NC1C2CC3CC(C2)CC1(F)C3 (racemic) [Iaa, (±)-1-(1-fluoroadamantan-2-yl)-3-[3-(5-methyl-1H-imidazol-1-yl)propyl]urea] | CNS+ (Compounds of high BBB permeation (CNS+): Pe (10^−6 cm s^−1)>5.26) | – | – | – | –
0.035 µM | 0.61 µM | 7.1 ×10⁻⁶ cm/s | Cc1cncn1CCCNC(=O)NC12CC3CC(CC(C3)C1)C2 [Ia, 1-(adamantan-1-yl)-3-[3-(5-methyl-1H-imidazol-1-yl)propyl]urea] | CNS+ (Compounds of high BBB permeation (CNS+): Pe (10^−6 cm s^−1)>5.26) | – | – | – | –
0.02 µM | 0.236 µM | 8.6 ×10⁻⁶ cm/s | Cc1cncn1CCCNC(=O)N[C@H]1C2CC3CC1C[C@](F)(C3)C2 [Iac, trans-1-(5-fluoroadamantan-2-yl)-3-[3-(5-methyl-1H-imidazol-1-yl)propyl]urea] | CNS+ (Compounds of high BBB permeation (CNS+): Pe (10^−6 cm s^−1)>5.26) | – | – | – | –
0.3 µM | 3.5 µM | 11.8 ×10⁻⁶ cm/s | O=C(NCCCn1ccnc1)NCC12CC3CC(CC(C3)C1)C2 [Im, 1-[3-(1H-imidazol-1-yl)propyl]-3-[(adamantan-1-yl)methyl]urea] | CNS+ (Compounds of high BBB permeation (CNS+): Pe (10^−6 cm s^−1)>5.26) | – | – | – | –
0.33 µM | 1.04 µM | – | Cc1cncn1CCCNC(=O)NC12CC3CC(CC(O)(C3)C1)C2 [Ih, 1-(3-hydroxyadamantan-1-yl)-3-[3-(5-methyl-1H-imidazol-1-yl)propyl]urea] | – | – | – | – | –
0.0133 µM | – | 10.2 ×10⁻⁶ cm/s | Cc1cncn1CCCNC(=O)NC12CC3CC(CC(C)(C3)C1)C2 [Ic, 1-[3-(5-methyl-1H-imidazol-1-yl)propyl]-3-(3-methyladamantan-1-yl)urea] | CNS+ (Compounds of high BBB permeation (CNS+): Pe (10^−6 cm s^−1)>5.26) | – | – | – | –
0.037 µM | 0.99 µM | – | Cc1cncn1CCCNC(=O)NC12CC3CC(CC(Cl)(C3)C1)C2 [If, 1-(3-chloroadamantan-1-yl)-3-[3-(5-methyl-1H-imidazol-1-yl)propyl]urea] | – | – | – | – | –
0.093 µM | 12.7 µM | – | O=C(NCCCn1ccnc1)NC12CC3CC(CC(C3)C1)C2 [Ib, 1-[3-(1H-imidazol-1-yl)propyl]-3-(adamantan-1-yl)urea] | – | – | – | – | –
0.194 µM | – | 5.4 ×10⁻⁶ cm/s | Cc1cncn1CCCNC(=O)NCC12CC3CC(CC1C3)C2 [Iu, 1-[(noradamantan-3-yl)methyl]-3-[3-(5-methyl-1H-imidazol-1-yl)propyl]urea] | CNS+ (Compounds of high BBB permeation (CNS+): Pe (10^−6 cm s^−1)>5.26) | – | – | – | –
5.1 µM | – | 26.4 ×10⁻⁶ cm/s | Cc1cncn1CCCNC(=O)NC12CC3CC(CC(C3)O1)C2 [Iq, 1-(2-oxaadamantan-1-yl)-3-[3-(5-methyl-1H-imidazol-1-yl)propyl]urea] | CNS+ (Compounds of high BBB permeation (CNS+): Pe (10^−6 cm s^−1)>5.26) | – | – | – | –
0.072 µM | 6.8 µM | – | Cc1cncn1CCCNC(=O)NCC12CC3(C)C4(C)CC1CC4(C)C3(C)C2 [Iw, 1-[3-(5-methyl-1H-imidazol-1-yl)propyl]-3-[(3,4,8,9-tetramethyltetracyclo[4.4.0.0^3,9.0^4,8]decan-1-yl)methyl]urea] | – | – | – | – | –
